# In paper PMC10997755, “Discovery of a small-molecule inhibitor that traps Polθ on DNA and synergizes with PARP inhibitors” (Nature Communications, 2024):
# Values joined by “and” are separate entries in the source; they are usually repeats but may differ in a detail not shown here. Equal values may be shown once.
# Target: T1, Polθ-pol (Homo sapiens, UniProt O75417)
# T1 construct: purified recombinant human Polθ-pol (comprising amino acid residues 1792–2590); made in house
# T1 sequence (O75417 1792-2590): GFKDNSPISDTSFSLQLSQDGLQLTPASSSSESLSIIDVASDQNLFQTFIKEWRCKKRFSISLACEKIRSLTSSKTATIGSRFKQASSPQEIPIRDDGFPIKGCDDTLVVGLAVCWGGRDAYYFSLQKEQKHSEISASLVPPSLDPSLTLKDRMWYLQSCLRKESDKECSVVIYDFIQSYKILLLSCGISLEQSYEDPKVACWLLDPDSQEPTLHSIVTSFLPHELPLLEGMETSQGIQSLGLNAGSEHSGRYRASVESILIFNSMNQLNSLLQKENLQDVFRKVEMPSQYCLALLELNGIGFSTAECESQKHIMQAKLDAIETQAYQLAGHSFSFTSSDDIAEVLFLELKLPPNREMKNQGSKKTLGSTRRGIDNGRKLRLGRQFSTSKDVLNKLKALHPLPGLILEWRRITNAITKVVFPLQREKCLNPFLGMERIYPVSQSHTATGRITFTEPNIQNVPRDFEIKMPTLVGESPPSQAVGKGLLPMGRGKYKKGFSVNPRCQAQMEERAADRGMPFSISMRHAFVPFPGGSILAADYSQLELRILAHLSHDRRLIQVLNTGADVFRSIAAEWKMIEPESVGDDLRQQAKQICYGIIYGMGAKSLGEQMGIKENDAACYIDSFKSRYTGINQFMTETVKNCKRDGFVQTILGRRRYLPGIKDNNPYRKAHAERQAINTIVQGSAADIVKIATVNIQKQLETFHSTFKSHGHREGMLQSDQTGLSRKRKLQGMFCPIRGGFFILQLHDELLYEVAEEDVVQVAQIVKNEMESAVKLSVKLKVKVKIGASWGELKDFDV
# Test: Relative rate of Polθ-pol dAMP addition
# Assay type: biochemical
# Protocol: Relative rate of Polθ-pol dAMP addition. The relative rates of dAMP incorporation by Polq-pol in the presence of DMSO or MC160385 with various concentrations of dATP were measured using the following primer extension assay in vitro. 2 nM or Polθ-pol was incubated with 5’ ^32P-γ-ATP labeled 100 nM primer-template (RP469D/RP486) in 1X buffer (25 mM TrisHCl pH 7.8, 0.01% NP40, 10% glycerol, 1 mM DTT, 10 mM MgCl2, 0.1 mg/ml BSA) at room temp. 2.5% DMSO, 7.5 nM or 12 nM of MC160385 was added. Reactions were than initiated by the addition of 20, 50, 100, 200, or 300 μM dATP at room temp. Aliquots of the reactions were removed and terminated by the addition of 50 mM EDTA at 3, 3.5, 4 and 5 min after the reaction was initiated. Radio-labeled DNA was then resolved via denaturing 20% PAGE and visualized by Typhoon PhosphorImager (GE Amersham). Rates of dAMP incorporation were calculated from % extension of the prime-template which was determined using ImageJ software. Relative rate of ddCMP addition on DNA/DNA and DNA/RNA. 25 nM nucleic acid DNA/DNA or DNA/RNA primer-template (RP559/RP702 or RP559/RP702R) was mixed with 1X reaction buffer (20 mM TrisHCl pH 7.5, 0.01% NP-40, 0.5 mM DTT, 10% glycerol, 0.1 mg/ml BSA, 10 mM MgCl2) in the presence of 250 μM ddCTP at room temp. Next, 2 μM RTx-161 or 2.5% DMSO was added. Reactions were initiated by the addition of 10 nM Polθ-pol. Reaction aliquots were removed and terminated by the addition of 50 mM EDTA at the indicated time points. Radio-labeled DNA was then resolved via denaturing 20% PAGE and visualized by Typhoon PhosphorImager. Percent primer extension by single ddCMP addition at each time point was calculated from % extension of the prime-template which was determined using ImageJ software.
compound,measurement,setting,value
CN(C(=O)Oc1ccc(C(F)(F)F)cc1C(F)(F)F)c1ccc(F)cc1 [MC160385],effect on Km for dATP,,slightly reducing
same,effect on Vmax of dAMP incorporation,,significantly reduces
same,relative velocity of dAMP incorporation (avg),"7.5 nM MC160385, dATP 20 uM",2.69 and 2.7
same,relative velocity of dAMP incorporation (avg),"7.5 nM MC160385, dATP 50 uM",5.36 and 5.4
same,relative velocity of dAMP incorporation (avg),"7.5 nM MC160385, dATP 100 uM",6.32 and 6.3
same,relative velocity of dAMP incorporation (avg),"7.5 nM MC160385, dATP 200 uM",6.56 and 6.6
same,relative velocity of dAMP incorporation (avg),"7.5 nM MC160385, dATP 300 uM",6.245 and 6.2
same,relative velocity of dAMP incorporation (avg),"12 nM, dATP 20 uM",2.3
same,relative velocity of dAMP incorporation (avg),"12 nM, dATP 50 uM",4.065
same,relative velocity of dAMP incorporation (avg),"12 nM, dATP 50 uM, listed as MC160386",4.1
same,relative velocity of dAMP incorporation (avg),"12 nM, dATP 100 uM",4.94
same,relative velocity of dAMP incorporation (avg),"12 nM, dATP 100 uM, listed as MC160386",4.9
same,relative velocity of dAMP incorporation (avg),"12 nM, dATP 200 uM",4.6
same,relative velocity of dAMP incorporation (avg),"12 nM, dATP 300 uM",4.95
